Measurements from US20040267017A1, “3-pyridyl or 4-isoquinolinyl thiazoles as c17, 20 lyase inhibitors” (priority 2001, published 2004).
Read-outs that look alike come from different tables or passages of the source.

Key:
[1] = target: T1, Recombinant human C17,20 lyase (hLyase) (Homo sapiens, UniProt P05093); test: Human C17,20 lyase biochemical assay (DHEA formation, RIA/SPA)
T1 construct: made in house; host or cells: Sf9 insect cells (baculovirus); hLyase-enriched microsomes
T1 sequence (P05093 1-508): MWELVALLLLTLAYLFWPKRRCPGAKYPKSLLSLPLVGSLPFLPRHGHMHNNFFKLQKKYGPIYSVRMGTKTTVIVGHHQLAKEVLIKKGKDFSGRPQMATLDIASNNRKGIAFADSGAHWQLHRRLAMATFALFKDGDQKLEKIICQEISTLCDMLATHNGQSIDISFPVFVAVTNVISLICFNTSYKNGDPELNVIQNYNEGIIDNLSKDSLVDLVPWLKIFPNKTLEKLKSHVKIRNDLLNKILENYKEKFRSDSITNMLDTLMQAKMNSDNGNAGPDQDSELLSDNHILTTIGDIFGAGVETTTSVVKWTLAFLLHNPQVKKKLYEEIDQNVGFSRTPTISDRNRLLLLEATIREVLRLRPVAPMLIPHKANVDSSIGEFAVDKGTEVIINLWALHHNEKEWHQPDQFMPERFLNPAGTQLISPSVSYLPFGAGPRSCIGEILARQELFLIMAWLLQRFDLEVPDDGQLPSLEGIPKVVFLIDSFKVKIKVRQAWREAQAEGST
Description: (§1) Recombinant human C17,20 lyase (hLyase) was expressed in (Sf9) cells, and hLyase enriched microsomes were prepared from cultures as described in the following reference: Baculovirus Expression of Bovine P450 in Sf9 Cells and Comparison with Expression in Yeast, Mammalian Cells, and E. Coli. Barnes H. J.; Jenkins, C. M.; Waterman, M. R., Archives of Biochemistry and Biophysics (1994) 315(2)489-494. Recombinant murine C17,20 lyase (mLyase) was prepared in a similar manner. hLyase and mLyase preparations were titrated using assay conditions to determine protein concentrations to be used for assays. Both mLyase and hLyase assays were run in an identical manner except that cytochrome b5 was omitted in the murine assays.
Test compounds were diluted […], serially in six steps, with 100% DMSO starting from 800 μM going to 51.2 nM reserving the first 2 columns for the generation of a standard curve. Each of these compound solutions in 100% DMSO was further diluted twenty fold in H2O to obtain compound concentrations ranging from 40 μM to 2.56 nM in 5% DMSO. […]
(§2) Enzymatic reactions were allowed to run for 2 h at rt with gentle agitation. […] The concentration of DHEA generated by hLyase was determined by radioimmunoassay (RIA) as described below.
(§3) 0.08 μCi ^3H-DHEA (1.6 μCi/mL) (NEN (NET814)) in scintillation proximity assay (SPA) buffer (100 mM Tris-HCl, pH 7.5, 50 mM NaCl, 0.5% BSA (Sigma A9647), 0.2% Tween 20) was added to each well. […] Mixtures were allowed to equilibrate with gentle agitation for 1 h followed by an overnight equilibration with no agitation. ^3H-DHEA bound to the SPA beads was determined by scintillation counting.
The concentration of DHEA generated in each reaction was calculated from raw data (CPM) and the standard curve. The lyase inhibitory activity of each compound was determined as the concentration of DHEA generated in the presence of test compounds, expressed as a percent inhibition compared to the DHEA concentration generated in the absence of test compounds (1−(nM DHEA formed in the presence of test compound/nM DHEA formed in the absence of test compounds)×100).

[2] = tested on: powdery mildew; test: Test against powdery mildew
[3] = target: T2, Recombinant murine C17,20 lyase (mLyase) (Mus musculus, UniProt P27786); test: Murine C17,20 lyase biochemical assay (DHEA formation, RIA/SPA, cytochrome b5 omitted); details: Table V
T2 construct: made in house; host or cells: Sf9 insect cells (baculovirus), by analogy ('in a similar manner'); enriched microsomes
T2 sequence (P27786 1-507): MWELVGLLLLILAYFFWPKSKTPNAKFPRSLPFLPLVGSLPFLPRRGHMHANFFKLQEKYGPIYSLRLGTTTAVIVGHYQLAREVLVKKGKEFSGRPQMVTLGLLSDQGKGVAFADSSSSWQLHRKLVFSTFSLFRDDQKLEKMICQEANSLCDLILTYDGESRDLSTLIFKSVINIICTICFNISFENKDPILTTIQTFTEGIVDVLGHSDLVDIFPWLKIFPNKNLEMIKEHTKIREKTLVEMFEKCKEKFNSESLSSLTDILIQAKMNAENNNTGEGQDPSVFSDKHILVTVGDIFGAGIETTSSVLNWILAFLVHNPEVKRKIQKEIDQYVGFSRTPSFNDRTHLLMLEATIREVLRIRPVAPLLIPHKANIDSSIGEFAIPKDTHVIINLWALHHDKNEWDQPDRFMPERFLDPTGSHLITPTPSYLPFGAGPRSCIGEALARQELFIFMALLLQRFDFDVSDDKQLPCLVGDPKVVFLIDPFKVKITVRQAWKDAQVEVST
Description: as §1, with “Both mLyase and hLyase assays were run in an identical manner except that cytochrome b5 was omitted in the murine assays.” left out
as §2, §3
The concentration of DHEA generated in each reaction was calculated from raw data (CPM) and the standard curve. […]

[4] = read-out: inhibitory IC50 against C17,20 human lyase

| Compound | melting point [°C] | IC50 [1, 4] [nM] | IC50 [3] [nM] | also measured |
| --- | --- | --- | --- | --- |
| Cl.Clc1ccc(-c2csc(-c3cnccc3Cl)n2)cc1 | 176.5 to 183.5 | – | – | – |
| Cc1ccncc1-c1nc(Cc2ccc(Cl)cc2)cs1.Cl | 165.5 to 170 | – | – | – |
| Clc1ccc(-c2csc(-c3cccnc3)n2)c(Cl)c1 [2-(3-pyridyl)-4-(2,4-dichlorophenyl)thiazole, reference compound] | – | 406 | 1400 | % Inhibition against Powdery Mildew ([2]; *Statistically insignificant): 80% |
| Cc1ccncc1-c1nc(-c2ccc(Cl)cc2Cl)cs1 [2-[4-methyl-3-pyridyl)-4-(2,4-dichlorophenyl)thiazole] | – | 15 | 39.7 | IC50 ([1]; Table V, read-out: Human Lyase IC50): 15.1 nM; % Inhibition against Powdery Mildew ([2]; *Statistically insignificant; listed as 2-[4-methyl-3-pyridyl)-4-(2,4dichlorophenyl)thiazole): devoid of activity; % Inhibition against Powdery Mildew ([2]; *Statistically insignificant, listed as drawing 261): 10%* |
| Cc1sc(-c2cccnc2)nc1Nc1ccccc1 [Example 6] | 110 | – | – | – |
